Reference: patent US7388014B2, “Quinazoline derivatives and therapeutic use thereof” (Rexahn Pharmaceuticals, Inc., priority 2004, dated 2008)

Assays:
A549 = assay: Cell growth inhibition assay (SRB), A549; type: cell-based, Human; conditions: A549 (lung), 96 hours
From the text: (§1) Cancer cells used in this study to determine the effect of quinazoline compounds were obtained from the following sources: Human OVCAR-3 (ovary), MCF-7 (breast, hormone-dependent), Hs 578T (breast), MDA-MB-231 (breast), HeLa (cervix), PC3 (prostate), HepG2 (liver), A549 (lung), Caki-1 (kidney), HT-29 (colon), HCT116 (colon) and PANC-1 (pancreas) from the American Type Culture Collection (ATCC) (Manassas, Va.); U251 (brain) from Riken (Japan); MKN-45 (stomach) from DSMZ (Germany); UMRC2 (kidney) and Lox IMVI (melanoma) from the United States National Cancer Institute (Bethesda, Md.). All cell lines except Hs 578T, MDA-MB-231, HCT116, UMRC2, Caki-1 and PANC-1 were grown in RPMI1640 medium (Invitrogen, Carlsbad, Calif.) supplemented with 10% fetal bovine serum (“FBS”), 1 mM sodium pyruvate, 10 mM HEPES and 100 U/ml penicillin and 100 μg/ml streptomycin (“P/S”). Hs 578T, MDA-MB-231, HCT116, UMRC2, Caki-1 and PANC-1 cells were maintained in Dulbecco's modified Eagle's medium (“DMEM”, Invitrogen) supplemented with 10% FBS, P/S, 10 mM HEPES and 2 mM L-glutamine. All cells were incubated at 37° C. under humidified 5% CO2.
(§2) The growth inhibition of the substituted quinazoline derivative compounds against a variety of human tumor cells was evaluated. The relative importance of particular substituent groups on the compounds was also studied. The substituted quinazoline derivative compounds, prepared as described above, were tested, along with DMSO as a control.
(§3) The growth inhibition assay of various compounds against 15 human tumor cell lines was performed using the Sulforhodamnine B (“SRB”) method (Skehan et al., J. National Cancer Institute, 82: 1107-1112 (1990)). Briefly, exponentially growing tumor cells were seeded into a 96-well plate at a density of 2-3×10^3 cells/well and treated with quinazoline compounds the next day. Triplicate wells were used for each treatment. The cells were. incubated with the various compounds for 96 hours at 37° C. in a humidified 5% CO2 atmosphere. After 96-hour incubation, cells were fixed with 10% trichloroacetic acid (“TCA”), incubated for 1 hour at 4° C., and washed 3 times with tap water. Subsequently cells were stained with 0.4% sulforhodamine B in 1% acetic acid for 30 minutes, washed 4 times with 1% acetic acid, and air-dried again. After 5 minutes agitation in 10 mM Tris solution, the absorbance of each well was measured at 530 nm using Benchmark Plus Microplate reader (Bio-Rad Laboratories, Hercules, Calif.).
(§4) To translate the OD530 values into the number of live cells in each well, the OD530 values were compared to those on standard OD530—versus—cell number curves generated for each cell line. The percent survival was calculated using the formula: % Survival=live cell number [test]/live cell number [control]×100
(§5) The IC50 values were calculated by non-linear regression analysis.

HepG2 = assay: Cell growth inhibition assay (SRB), HepG2; type: cell-based, Human; conditions: HepG2 (liver), 96 hours, read-out: Inhibition of cell growth (IC50, μM) HepG 2
From the text: as §1, §2, §3, §4, §5

MKN-45 = assay: Cell growth inhibition assay (SRB), MKN-45; type: cell-based, Human; conditions: MKN-45 (stomach), 96 hours
From the text: as §1, §2, §3, §4, §5

PANC-1 = assay: Cell growth inhibition assay (SRB), PANC-1; type: cell-based, Human; conditions: PANC-1 (pancreas), 96 hours
From the text: as §1, §2, §3, §4, §5

HT-29 = assay: Cell growth inhibition assay (SRB), HT-29; type: cell-based, Human; conditions: HT-29 (colon), 96 hours
From the text: as §1, §2, §3, §4, §5

PC3 = assay: Cell growth inhibition assay (SRB), PC3; type: cell-based, Human; conditions: PC3 (prostate), 96 hours
From the text: as §1, §2, §3, §4, §5

U251 = assay: Cell growth inhibition assay (SRB), U251; type: cell-based, Human; conditions: U251 (brain), 96 hours
From the text: as §1, §2, §3, §4, §5

HeLa = assay: Cell growth inhibition assay (SRB), HeLa; type: cell-based, Human; conditions: HeLa (cervix), 96 hours
From the text: as §1, §2, §3, §4, §5

Lox IMVI = assay: Cell growth inhibition assay (SRB), Lox IMVI; type: cell-based, Human; conditions: Lox IMVI (melanoma), 96 hours
From the text: as §1, §2, §3, §4, §5

OVCAR-3 = assay: Cell growth inhibition assay (SRB), OVCAR-3; type: cell-based, Human; conditions: OVCAR-3 (ovary), 96 hours
From the text: as §1, §2, §3, §4, §5

MCF-7 = assay: Cell growth inhibition assay (SRB), MCF-7; type: cell-based, Human; conditions: MCF-7 (breast, hormone-dependent), 96 hours
From the text: as §1, §2, §3, §4, §5

MDA-MB-231 = assay: Cell growth inhibition assay (SRB), MDA-MB-231; type: cell-based, Human; conditions: MDA-MB-231 (breast), 96 hours
From the text: as §1, §2, §3, §4, §5

Hs 578T = assay: Cell growth inhibition assay (SRB), Hs 578T; type: cell-based, Human; conditions: Hs 578T (breast), 96 hours
From the text: as §1, §2, §3, §4, §5

UMRC2 = assay: Cell growth inhibition assay (SRB), UMRC2; type: cell-based, Human; conditions: UMRC2 (kidney), 96 hours
From the text: as §1, §2, §3, §4, §5

Caki-1 = assay: Cell growth inhibition assay (SRB), Caki-1; type: cell-based, Human; conditions: Caki-1 (kidney), 96 hours
From the text: as §1, §2, §3, §4, §5

[1] = test system: 15 human tumor cell lines; assay: Cell growth inhibition assay (SRB), summary over the panel of cell lines; type: cell-based; conditions: four of the tested cell lines
From the text: Cancer cells used in this study to determine the effect of quinazoline compounds were obtained from the following sources: Human OVCAR-3 (ovary), MCF-7 (breast, hormone-dependent), Hs 578T (breast), MDA-MB-231 (breast), HeLa (cervix), PC3 (prostate), HepG2 (liver), A549 (lung), Caki-1 (kidney), HT-29 (colon), HCT116 (colon) and PANC-1 (pancreas) from the American Type Culture Collection (ATCC) (Manassas, Va.); U251 (brain) from Riken (Japan); MKN-45 (stomach) from DSMZ (Germany); UMRC2 (kidney) and Lox IMVI (melanoma) from the United States National Cancer Institute (Bethesda, Md.). […]
The growth inhibition of the substituted quinazoline derivative compounds against a variety of human tumor cells was evaluated. […]
The growth inhibition assay of various compounds against 15 human tumor cell lines was performed using the Sulforhodamnine B (“SRB”) method (Skehan et al., J. National Cancer Institute, 82: 1107-1112 (1990)). […] After 5 minutes agitation in 10 mM Tris solution, the absorbance of each well was measured at 530 nm using Benchmark Plus Microplate reader (Bio-Rad Laboratories, Hercules, Calif.). […]
The IC50 values were calculated by non-linear regression analysis. […]

- IC50 (A549): 0.66 µM
- IC50 (HepG2): 0.18 µM
- IC50 (MKN-45): 0.1 µM
- IC50 (PANC-1): > 3 µM
- IC50 (HT-29): 0.24 µM
- IC50 (PC3): 1.03 µM
- IC50 (U251): 0.13 µM
- IC50 (HeLa): 1.06 µM
- IC50 (OVCAR-3): 0.48 µM
- IC50 (MCF-7): 0.11 µM
- IC50 (MDA-MB-231): 0.53 µM
- IC50 [1]: < 200 nM
SMILES: CC(C)Nc1ncnc2cc3[nH]cnc3cc12 [RX-1834]
- IC50 (Lox IMVI): 0.67 µM
- IC50 (Hs 578T): 0.79 µM
- IC50 (UMRC2): 2.24 µM
- IC50 (Caki-1): 0.65 µM
